Reference: patent US9340574B2, “Inhibitors of protein tyrosine phosphatases” (Indiana University Research and Technology Corporation, priority 2012, dated 2016)

What was measured:
[1] = tested on: panel of mammalian PTPs (PTP-MEG1, SHP1, SHP2, Lyp, FAP-1, PTP-PEST, PTPH1, Laforin, HePTP, CD45, LAR, DEP1, PTPμ, PTPγ, PTPβ, PTPε, VHR, VHX); experiment: Inhibition of a panel of mammalian PTPs at 10 μM; type: biochemical
Protocol: (§1) Enzyme kinetic assay. PTP activity was assayed using p-nitrophenyl phosphate (pNPP) as a substrate in 3,3-dimethylglutarate buffer (50 mM 3,3-dimethylglutarate, pH 7.0, 1 mM EDTA, 150 mM NaCl, 2 mM DTT, 0.1 mg/mL BSA) at 25° C. The assays were performed in 96-well plates. Normally, to determine the IC50 values, the reaction was initiated by the addition of enzyme (final concentration at 10 nM) to a reaction mixture (0.2 mL) containing 2 mM (Km for the substrate) pNPP with various concentrations of inhibitors. The reaction rate was measured using a SpectraMax Plus 384 Microplate Spectrophotometer (Molecular Devices). To determine the mode of inhibition, the reactions were initiated by the addition of PTP-MEG2 to the reaction mixtures (0.2 mL) containing various concentrations of pNPP with different concentrations of the inhibitor 7. Data were fitted using SigmaPlot Enzyme Kinetics Module (Systat Software, Inc.).

[2] = tested on: Foxo1 target genes in mouse primary hepatocytes; experiment: Foxo1 target gene expression in mouse primary hepatocytes (real-time PCR); type: cell-based; settings: with insulin, overnight, normalized with Ppia
Protocol: FIGS. 4A-B depict the ability of PTP-MEG2 inhibitor Compound 7 to sensitize insulin signaling in primary hepatocytes. […] Mouse primary hepatocytes were cultured in 0.5% FBS DMEM medium overnight. Prior to insulin stimulation, the cells were pretreated with Compound 7 or 8 for 1 hour. Then the cells were stimulated with 5 nM insulin for 5 minutes. Insulin signaling was analyzed by Western Blots using phospho-specific antibodies. […] Mouse primary hepatocytes were cultured in DMEM medium plus 0.5% FBS for overnight in the presence or absence of insulin or Compound 7 or 8. Then the cells were harvested for mRNA isolation and gene expression analysis using real-time PCR. The mRNA levels of Foxo1 target genes were normalized with Ppia as an internal control. Data are presented as mean±SEM. *, P<0.05 for Compound 7 vs. DMSO; #, P<0.05 for INS+Compound 7 vs. INS alone.
RNA isolation and real-time PCR. RNA isolation was performed as described previously (Jänne, et al. Nat. Rev. Drug Discov. 2009, 8, 709-723). Real-time RT-PCR was performed in two steps: first, cDNA was synthesized using a cDNA synthesis kit (Applied Biosystems Inc.); second, cDNA was analyzed by real-time PCR using SYBR Green Master Mix (Promega). […]

PTP-MEG1 = PTP-MEG1 (Homo sapiens (Human), UniProt P29074); experiment: pNPP hydrolysis enzyme assay, PTP-MEG1; type: biochemical
Protocol: as §1

PTPε = PTPε (Homo sapiens (Human), UniProt P23469); experiment: pNPP hydrolysis enzyme assay, PTPε; type: biochemical
Protocol: as §1

[3] = tested on: diet-induced obese C57BL/6 mice; experiment: Pyruvate tolerance test in diet-induced obese mice; type: in vivo, mouse; settings: 5 mg/kg i.p. twice a day
Protocol: C57BL/6J mice were fed a high-fat diet for 10 weeks before Compound 7 or vehicle was injected intraperitoneally twice a day at a dose of 5 mg/kg body weight. FIG. 5A depicts insulin tolerance tests (ITT) performed on Day 7 by injecting intraperitoneally a bolus of 0.75 unit/kg of human regular insulin. […] FIG. 5C depicts glucose tolerance tests (GTT) carried out on Day 9 after a bolus of 1 g/kg glucose was injected intraperitoneally. […] FIG. 5E depicts pyruvate tolerance tests (PTT) performed on Day 12 after an injection of 2 g/kg pyruvate solution. […] At the end of 2-week injections of Compound 7, animals were fasted overnight and stimulated with a bolus of 1 unit of human regular insulin or saline via vena cava. Three minutes later, liver, skeletal muscle, and white adipose tissue (WAT) were collected sequentially for insulin signaling analysis. FIG. 5G depicts the phosphorylation of Tyr1162/1163 in insulin receptor (IR) and Ser473 phosphorylation in Akt kinases and the corresponding proteins in the liver, skeletal muscle, and white adipose tissue (WAT) were analyzed by immunoblots.
To this end, we intraperitoneally injected Compound 7 into diet-induced obese C57BL/6 mice at a dose of 5 mg/kg twice a day. […] After 7 days of injections, we performed insulin tolerance tests to measure insulin sensitivity in vehicle and Compound 7 treated mice.

PTP-MEG1, sequence (P29074 whole entry): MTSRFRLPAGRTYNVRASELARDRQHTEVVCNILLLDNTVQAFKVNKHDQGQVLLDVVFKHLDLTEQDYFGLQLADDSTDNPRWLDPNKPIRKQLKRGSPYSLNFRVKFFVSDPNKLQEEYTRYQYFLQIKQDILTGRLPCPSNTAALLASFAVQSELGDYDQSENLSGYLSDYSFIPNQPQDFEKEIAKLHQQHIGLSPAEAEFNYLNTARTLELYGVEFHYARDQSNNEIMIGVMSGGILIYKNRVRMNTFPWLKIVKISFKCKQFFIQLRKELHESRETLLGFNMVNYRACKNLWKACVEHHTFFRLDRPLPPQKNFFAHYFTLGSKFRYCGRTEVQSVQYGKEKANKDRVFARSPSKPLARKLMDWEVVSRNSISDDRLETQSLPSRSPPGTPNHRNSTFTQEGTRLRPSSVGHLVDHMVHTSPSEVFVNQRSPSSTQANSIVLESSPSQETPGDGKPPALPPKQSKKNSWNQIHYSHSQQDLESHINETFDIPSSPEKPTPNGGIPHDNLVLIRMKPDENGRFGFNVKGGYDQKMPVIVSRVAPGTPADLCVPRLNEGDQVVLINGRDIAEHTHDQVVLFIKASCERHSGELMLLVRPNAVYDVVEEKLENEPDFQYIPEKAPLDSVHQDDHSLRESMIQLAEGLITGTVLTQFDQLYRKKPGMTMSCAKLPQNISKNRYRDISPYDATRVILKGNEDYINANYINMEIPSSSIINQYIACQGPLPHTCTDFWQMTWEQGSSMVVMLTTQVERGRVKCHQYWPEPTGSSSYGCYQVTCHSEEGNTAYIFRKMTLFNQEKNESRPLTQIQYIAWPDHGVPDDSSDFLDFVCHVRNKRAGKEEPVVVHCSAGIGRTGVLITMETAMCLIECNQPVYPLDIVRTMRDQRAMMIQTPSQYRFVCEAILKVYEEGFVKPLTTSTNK
PTPε, sequence (P23469 20-700): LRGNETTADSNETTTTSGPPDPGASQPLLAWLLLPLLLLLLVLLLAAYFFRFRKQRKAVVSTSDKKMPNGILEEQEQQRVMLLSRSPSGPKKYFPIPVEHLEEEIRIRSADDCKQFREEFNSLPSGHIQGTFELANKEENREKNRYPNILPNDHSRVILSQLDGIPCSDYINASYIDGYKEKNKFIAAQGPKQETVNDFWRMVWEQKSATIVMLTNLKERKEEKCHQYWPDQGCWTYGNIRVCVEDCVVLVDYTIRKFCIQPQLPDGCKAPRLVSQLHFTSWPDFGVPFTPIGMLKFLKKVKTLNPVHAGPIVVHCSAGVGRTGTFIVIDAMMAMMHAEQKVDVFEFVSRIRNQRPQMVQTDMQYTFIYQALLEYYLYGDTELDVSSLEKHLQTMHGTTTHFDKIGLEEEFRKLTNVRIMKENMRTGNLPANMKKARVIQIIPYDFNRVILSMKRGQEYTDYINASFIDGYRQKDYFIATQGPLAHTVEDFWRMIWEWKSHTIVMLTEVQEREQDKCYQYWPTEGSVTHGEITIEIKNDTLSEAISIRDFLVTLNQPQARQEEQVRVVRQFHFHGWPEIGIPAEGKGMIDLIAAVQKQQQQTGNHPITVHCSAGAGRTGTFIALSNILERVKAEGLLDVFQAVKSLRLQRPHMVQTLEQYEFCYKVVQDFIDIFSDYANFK

COc1cc(CC(=O)NCC(NC(=O)C(CCCNC(=O)c2cccc(I)c2)NC(=O)C(Cc2ccc(C(F)(F)P(=O)(O)O)cc2)NC(=O)c2ccc(C)c(Br)c2)C(N)=O)ccc1O (stereo not drawn) [Compound 7]
inhibition of a panel of mammalian PTPs [1]: no inhibition
Pdk4, Igfbp1, and G6pc gene expression (Foxo1 transcriptional activity) [2]: synergistic reduction
IC50 (PTP-MEG1): > 10000 nM
IC50 (PTPε): > 10000 nM
hepatic gluconeogenesis in pyruvate tolerance test ([3]; Day 12): significant suppression of hepatic gluconeogenesis
better pyruvate tolerance (AUC) ([3]; Day 12, vs vehicle): 25%
